# Experimental data: US11020399B2, “Intermediates useful in the synthesis of compounds as modulators of protein kinases” (Rhizen Pharmaceuticals SA, priority 2011, dated 2021)
# Legend:
# Format in all cases: biochemical
# PI3kα = PI3kα (Homo sapiens, UniProt P42336); experiment: Fluorescent (HTRF) determination of PI3 kinase enzyme activity, PI3Kα
# Description: (§1) Assay 1: Fluorescent Determination of PI3Kinase Kinase Enzyme Activity
# (§2) Phosphoinositide 3 kinases (PI3K) belong to a class of lipid kinases that play a critical role in the regulation of several key cellular processes. The PI3K are capable of phosphorylating the 3-hydroxy position of phosphoinositols thereby generating second messengers involved in downstream signalling events. The homogenous time resolved fluorescence (HTRF) assay allows detection of 3,4,5-triphosphate (PIP3) formed as a result of phosphorylation of phosphotidylinositol 4,5-biphosphate (PIP2) by PI3K isoforms such as α, β, γ or δ. PI3K isoform activity for a, p, y or 8 was determined using a PI3K human HTRF™ Assay Kit (Millipore, Billerica, Mass.) with modifications. All incubations were carried out at room temperature. Briefly, 0.5 μl of 40× inhibitor (in 100% DMSO) or 100% DMSO were added to each well of a 384-well black plate (Greiner Bio-One, Monroe, N.C.) containing 14.5 μl IX reaction buffer /PIP2 (10 mM MgCl2, 5 mM DTT, 1.38 μM PIP2) mix with or without enzyme and incubated for 10 min. After the initial incubation, 5 μl/well of 400 μM ATP was added and incubated for an additional 30 minutes. Reaction was terminated by adding 5 μl/well stop solution (Millipore, Billerica, Mass.). Five microliters of detection mix (Millipore, Billerica, Mass.) were then added to each well and was incubated for 6-18 h in the dark. HRTF ratio was measured on a microplate reader (BMG Labtech., Germany) at an excitation wavelength of 337 nm and emission wavelengths of 665 and 620 nm with an integration time of 400 μsec.
# (§3) Data were analyzed using Graphpad Prism (Graphpad software; San Diego Calif.) for IC50 determination. Examples 1-59 were tested at 1 uM for Pi3kα & Pi3k β and at 0.3 uM for γ and δ. Examples 60-137 were tested at 1 uM for Pi3kα & Pi3k β and at 0.1 uM for γ and δ. Percent inhibition was calculated based on the values for the blank and enzyme controls. The results are as provided in Table 2 (wherein D=0 to 25%; C=>25 to 50%; B=>50 to 75%; A=>75 to 100%; +++++=≤50 nM; ++++=>50 to ≤100 nM; +++=>100 to ≤300 nM; ++=>300 to ≤500 nM; +=>500 nM)
# PI3kβ = PI3kβ (Homo sapiens, UniProt P42338); experiment: Fluorescent (HTRF) determination of PI3 kinase enzyme activity, PI3Kβ
# PI3kβ, sequence (P42338 whole entry): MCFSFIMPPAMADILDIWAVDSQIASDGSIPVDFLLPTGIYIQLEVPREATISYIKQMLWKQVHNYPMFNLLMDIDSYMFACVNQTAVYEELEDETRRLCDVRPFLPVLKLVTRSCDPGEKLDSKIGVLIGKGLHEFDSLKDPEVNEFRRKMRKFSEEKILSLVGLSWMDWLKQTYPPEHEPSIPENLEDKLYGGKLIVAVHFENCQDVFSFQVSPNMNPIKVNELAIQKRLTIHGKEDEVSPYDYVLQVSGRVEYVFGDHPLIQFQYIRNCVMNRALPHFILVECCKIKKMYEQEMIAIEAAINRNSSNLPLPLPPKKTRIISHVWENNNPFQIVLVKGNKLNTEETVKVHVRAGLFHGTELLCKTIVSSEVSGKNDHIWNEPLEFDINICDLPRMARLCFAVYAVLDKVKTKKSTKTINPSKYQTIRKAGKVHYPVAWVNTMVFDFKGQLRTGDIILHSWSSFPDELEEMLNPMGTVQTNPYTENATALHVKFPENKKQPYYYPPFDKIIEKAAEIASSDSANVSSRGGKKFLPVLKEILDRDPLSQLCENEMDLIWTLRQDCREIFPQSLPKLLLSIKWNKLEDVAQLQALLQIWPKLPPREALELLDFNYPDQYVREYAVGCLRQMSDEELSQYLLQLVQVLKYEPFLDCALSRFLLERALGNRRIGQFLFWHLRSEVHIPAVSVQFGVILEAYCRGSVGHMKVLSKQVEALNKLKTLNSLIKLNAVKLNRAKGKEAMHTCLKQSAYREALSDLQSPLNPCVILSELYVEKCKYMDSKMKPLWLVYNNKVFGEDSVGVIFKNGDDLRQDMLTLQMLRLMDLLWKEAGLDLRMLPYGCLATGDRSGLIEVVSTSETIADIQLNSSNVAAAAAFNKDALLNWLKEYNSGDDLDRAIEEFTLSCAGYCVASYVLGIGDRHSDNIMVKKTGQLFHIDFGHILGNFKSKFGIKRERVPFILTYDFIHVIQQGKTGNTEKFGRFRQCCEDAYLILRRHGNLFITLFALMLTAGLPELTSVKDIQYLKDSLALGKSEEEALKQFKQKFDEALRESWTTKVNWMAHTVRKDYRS
# PI3kβ, sequence (P27986 whole entry partner): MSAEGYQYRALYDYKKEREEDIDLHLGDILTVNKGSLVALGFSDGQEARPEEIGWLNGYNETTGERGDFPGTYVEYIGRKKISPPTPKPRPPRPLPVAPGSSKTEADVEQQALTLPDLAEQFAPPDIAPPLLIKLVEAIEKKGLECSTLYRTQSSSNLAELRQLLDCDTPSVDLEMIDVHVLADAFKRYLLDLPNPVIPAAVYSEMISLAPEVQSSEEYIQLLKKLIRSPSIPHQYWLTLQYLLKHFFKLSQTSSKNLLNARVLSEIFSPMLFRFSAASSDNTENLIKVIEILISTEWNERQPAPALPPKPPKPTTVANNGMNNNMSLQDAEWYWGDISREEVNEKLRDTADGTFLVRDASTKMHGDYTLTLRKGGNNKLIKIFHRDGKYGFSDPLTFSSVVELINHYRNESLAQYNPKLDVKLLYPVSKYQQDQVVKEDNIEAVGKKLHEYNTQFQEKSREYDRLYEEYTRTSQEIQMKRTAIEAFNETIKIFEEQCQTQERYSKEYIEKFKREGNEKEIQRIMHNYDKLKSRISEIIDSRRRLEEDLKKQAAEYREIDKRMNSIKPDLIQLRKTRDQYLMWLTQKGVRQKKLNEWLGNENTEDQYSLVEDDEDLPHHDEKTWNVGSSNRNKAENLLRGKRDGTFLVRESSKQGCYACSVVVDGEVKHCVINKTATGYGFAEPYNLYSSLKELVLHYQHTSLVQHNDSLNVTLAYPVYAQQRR
# Description: as §1, §2, §3
# PI3kγ = PI3kγ (Homo sapiens, UniProt P48736); experiment: Fluorescent (HTRF) determination of PI3 kinase enzyme activity, PI3Kγ; conditions: for inhibition at 0.1 µM / % inhibition (PI3kγ) 100 nM: 100 nM (Examples 60-137); for % inhibition (PI3kγ) 100 nM: 0.1 µM; for inhibition at 0.3 µM: 300 nM (Examples 1-59)
# PI3kγ, sequence (P48736 whole entry): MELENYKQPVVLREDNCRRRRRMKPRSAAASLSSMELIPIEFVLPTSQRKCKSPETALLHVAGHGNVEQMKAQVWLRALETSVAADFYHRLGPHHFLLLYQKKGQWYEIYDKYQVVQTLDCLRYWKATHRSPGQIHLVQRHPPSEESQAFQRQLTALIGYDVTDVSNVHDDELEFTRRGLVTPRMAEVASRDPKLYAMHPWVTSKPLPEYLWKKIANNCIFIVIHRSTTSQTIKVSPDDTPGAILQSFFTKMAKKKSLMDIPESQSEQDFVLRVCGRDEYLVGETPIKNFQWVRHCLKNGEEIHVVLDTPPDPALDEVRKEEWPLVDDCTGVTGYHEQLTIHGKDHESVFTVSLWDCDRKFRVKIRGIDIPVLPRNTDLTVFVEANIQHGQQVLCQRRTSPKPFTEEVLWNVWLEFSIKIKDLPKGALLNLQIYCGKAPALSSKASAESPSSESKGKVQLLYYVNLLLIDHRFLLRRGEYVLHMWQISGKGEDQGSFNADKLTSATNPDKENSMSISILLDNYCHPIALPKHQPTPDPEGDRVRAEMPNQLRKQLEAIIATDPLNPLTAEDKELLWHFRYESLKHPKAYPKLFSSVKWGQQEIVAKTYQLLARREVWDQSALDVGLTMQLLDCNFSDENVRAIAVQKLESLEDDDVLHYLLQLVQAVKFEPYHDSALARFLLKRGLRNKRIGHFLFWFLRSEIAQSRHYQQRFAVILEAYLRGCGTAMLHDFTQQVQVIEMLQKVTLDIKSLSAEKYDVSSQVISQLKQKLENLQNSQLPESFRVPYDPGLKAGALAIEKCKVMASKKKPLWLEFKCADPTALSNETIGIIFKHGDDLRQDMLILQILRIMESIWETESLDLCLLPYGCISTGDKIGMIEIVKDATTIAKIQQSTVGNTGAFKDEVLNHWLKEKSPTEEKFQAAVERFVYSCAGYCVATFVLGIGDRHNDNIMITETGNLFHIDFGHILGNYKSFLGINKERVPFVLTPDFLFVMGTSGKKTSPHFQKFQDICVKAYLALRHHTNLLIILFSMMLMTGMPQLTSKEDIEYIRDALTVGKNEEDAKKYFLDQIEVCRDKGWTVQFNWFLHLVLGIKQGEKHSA
# Description: as §1, §2, §3
# PI3kδ = PI3kδ (Homo sapiens, UniProt O00329); experiment: Fluorescent (HTRF) determination of PI3 kinase enzyme activity, PI3Kδ; conditions: for inhibition at 0.1 µM / % inhibition (PI3kδ) 100 nM: 100 nM (Examples 60-137); for inhibition at 0.3 µM: 300 nM (Examples 1-59)
# PI3kδ, sequence (O00329 whole entry): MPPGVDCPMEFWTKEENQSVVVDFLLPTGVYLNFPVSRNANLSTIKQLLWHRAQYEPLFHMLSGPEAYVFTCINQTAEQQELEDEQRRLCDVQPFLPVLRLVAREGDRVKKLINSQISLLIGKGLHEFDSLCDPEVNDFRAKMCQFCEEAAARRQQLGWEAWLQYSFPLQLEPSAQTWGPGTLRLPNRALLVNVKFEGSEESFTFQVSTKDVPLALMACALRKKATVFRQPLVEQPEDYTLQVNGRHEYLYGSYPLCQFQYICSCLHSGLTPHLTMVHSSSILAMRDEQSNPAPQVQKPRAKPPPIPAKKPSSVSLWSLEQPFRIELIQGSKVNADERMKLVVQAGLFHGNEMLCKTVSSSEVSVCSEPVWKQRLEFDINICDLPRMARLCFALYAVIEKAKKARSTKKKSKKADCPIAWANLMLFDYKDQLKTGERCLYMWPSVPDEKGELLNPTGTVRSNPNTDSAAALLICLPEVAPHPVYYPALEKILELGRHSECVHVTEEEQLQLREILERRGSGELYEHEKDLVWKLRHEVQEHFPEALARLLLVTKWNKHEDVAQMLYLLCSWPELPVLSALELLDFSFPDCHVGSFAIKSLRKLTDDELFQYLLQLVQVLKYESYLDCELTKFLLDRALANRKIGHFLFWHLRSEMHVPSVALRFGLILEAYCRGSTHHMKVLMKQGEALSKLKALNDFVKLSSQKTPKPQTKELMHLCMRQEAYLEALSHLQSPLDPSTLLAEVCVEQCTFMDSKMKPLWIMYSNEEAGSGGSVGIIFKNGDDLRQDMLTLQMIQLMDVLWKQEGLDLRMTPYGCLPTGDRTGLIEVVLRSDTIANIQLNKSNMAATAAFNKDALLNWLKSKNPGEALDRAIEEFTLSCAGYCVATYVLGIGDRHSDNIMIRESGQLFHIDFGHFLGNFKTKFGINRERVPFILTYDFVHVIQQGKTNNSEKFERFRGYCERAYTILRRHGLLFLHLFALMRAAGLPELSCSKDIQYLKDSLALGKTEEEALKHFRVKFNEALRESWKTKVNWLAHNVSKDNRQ
# PI3kδ, sequence (P27986 whole entry partner): as the sequence (P27986 whole entry partner) above
# Description: as §1, §2, §3
# PI3kα, sequence (P42336 whole entry): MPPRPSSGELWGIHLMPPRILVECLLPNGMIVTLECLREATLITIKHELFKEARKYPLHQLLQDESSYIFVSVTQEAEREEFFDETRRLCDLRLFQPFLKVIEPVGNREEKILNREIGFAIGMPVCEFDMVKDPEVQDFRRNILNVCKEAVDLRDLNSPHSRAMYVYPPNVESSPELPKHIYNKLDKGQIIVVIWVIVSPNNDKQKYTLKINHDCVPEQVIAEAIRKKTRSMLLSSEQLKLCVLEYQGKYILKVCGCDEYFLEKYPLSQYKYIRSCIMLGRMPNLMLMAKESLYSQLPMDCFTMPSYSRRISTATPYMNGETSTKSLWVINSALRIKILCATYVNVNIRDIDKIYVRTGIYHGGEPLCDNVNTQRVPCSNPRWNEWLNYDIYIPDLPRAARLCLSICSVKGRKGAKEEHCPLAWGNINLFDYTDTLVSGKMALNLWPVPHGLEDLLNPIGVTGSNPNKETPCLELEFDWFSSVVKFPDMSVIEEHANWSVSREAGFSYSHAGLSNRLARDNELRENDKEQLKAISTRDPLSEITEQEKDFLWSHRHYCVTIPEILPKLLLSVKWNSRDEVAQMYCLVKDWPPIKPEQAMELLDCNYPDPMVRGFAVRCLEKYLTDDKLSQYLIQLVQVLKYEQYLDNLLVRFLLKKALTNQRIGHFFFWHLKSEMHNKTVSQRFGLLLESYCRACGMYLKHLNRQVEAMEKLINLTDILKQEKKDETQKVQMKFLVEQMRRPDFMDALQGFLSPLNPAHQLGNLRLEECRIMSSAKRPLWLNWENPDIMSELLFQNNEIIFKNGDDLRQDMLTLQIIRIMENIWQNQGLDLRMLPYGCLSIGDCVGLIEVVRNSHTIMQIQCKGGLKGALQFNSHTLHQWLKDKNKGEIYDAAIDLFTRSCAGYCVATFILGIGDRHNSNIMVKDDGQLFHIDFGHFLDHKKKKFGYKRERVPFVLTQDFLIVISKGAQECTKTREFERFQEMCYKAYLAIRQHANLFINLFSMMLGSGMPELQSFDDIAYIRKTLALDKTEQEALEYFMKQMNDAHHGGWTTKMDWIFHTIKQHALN
# PI3kα, sequence (P27986 whole entry partner): as the sequence (P27986 whole entry partner) above
SMILES,% inhibition (PI3kα) 1 uM (PI3kα),inhibition at 1 µM (PI3kβ) [%],IC50 (PI3kγ) [nM],IC50 (PI3kδ) [nM],inhibition at 1 µM (PI3kα) [%],inhibition at 0.3 µM (PI3kγ) [%],also measured
"CC(C)Oc1ccc(-c2nn(C(C)c3oc4cccc(F)c4c(=O)c3-c3ccc(F)cc3)c3ncnc(N)c23)cc1F (racemic) [Example 94, (S)/(R)-2-(1-(4-amino-3-(3-fluoro-4-isopropoxyphenyl)-1H-pyrazolo[3,4-d]pyrimidin-1-yl)ethyl)-5-fluoro-3-(4-fluorophenyl)-4H-chromen-4-one]",C (C=>25 to 50%),25 to 50,–,–,–,–,inhibition at 0.1 µM (PI3kγ): 25 to 50%; inhibition at 0.1 µM (PI3kδ): 25 to 50%
"CC(C)Oc1ccc(-c2nn(C(C)c3oc4cccc(F)c4c(=O)c3-c3ccccc3)c3ncnc(N)c23)cc1F (racemic) [Example 100, (S)/(R)-2-(1-(4-amino-3-(3-fluoro-4-isopropoxyphenyl)-1H-pyrazolo[3,4-d]pyrimidin-1-yl)ethyl)-5-fluoro-3-phenyl-4H-chromen-4-one]",B (B=>50 to 75%),–,50 to 100,100 to 300,–,–,% inhibition (PI3kβ) 1 uM (PI3kβ): B (B=>50 to 75%); inhibition at 0.1 µM (PI3kγ): 50 to 75%; inhibition at 0.1 µM (PI3kδ): 25 to 50%
"CC(c1oc2cccc(F)c2c(=O)c1-c1ccccc1)n1nc(-c2ccc(OC(F)F)c(F)c2)c2c(N)ncnc21 (racemic) [Example 102, (S)/(R)-2-(1-(4-amino-3-(4-(difluoromethoxy)-3-fluorophenyl)-1H-pyrazolo[3,4-d]pyrimidin-1-yl)ethyl)-5-fluoro-3-phenyl-4H-chromen-4-one]",C (C=>25 to 50%),50 to 75,–,–,–,–,inhibition at 0.1 µM (PI3kγ): 25 to 50%; inhibition at 0.1 µM (PI3kδ): 0 to 25%
"CC(c1oc2cccc(F)c2c(=O)c1-c1cccc(F)c1)n1nc(-c2ccc(N3CCOCC3)c(Cl)c2)c2c(N)ncnc21 (racemic) [Example 126, (S)/(R)-2-(1-(4-amino-3-(3-chloro-4-morpholinophenyl)-1H-pyrazolo[3,4-d]pyrimidin-1-yl)ethyl)-5-fluoro-3-(3-fluorophenyl)-4H-chromen-4-one]",D (D=0 to 25%),–,–,–,–,–,% inhibition (PI3kβ) 1 uM (PI3kβ): C (C=>25 to 50%); % inhibition (PI3kγ) 100 nM (PI3kγ): D (D=0 to 25%); % inhibition (PI3kδ) 100 nM (PI3kδ): B (B=>50 to 75%)
"CC(c1oc2cccc(F)c2c(=O)c1-c1ccc(F)cc1)n1nc(-c2ccc(OC(F)F)c(F)c2)c2c(N)ncnc21 (single isomer, unassigned) [Example 97]",–,25 to 50,–,–,25 to 50,–,inhibition at 0.1 µM (PI3kγ): 25 to 50%; inhibition at 0.1 µM (PI3kδ): 25 to 50%
"CC(C)Oc1ccc(-c2nn(C(C)c3oc4cccc(F)c4c(=O)c3-c3ccccc3)c3ncnc(N)c23)cc1F (single isomer, unassigned) [Example 101]",–,25 to 50,100 to 300,–,50 to 75,–,inhibition at 0.1 µM (PI3kγ): 50 to 75%; inhibition at 0.1 µM (PI3kδ): 0 to 25%
"CC(C)Oc1ccc(-c2nn(C(C)c3oc4cccc(F)c4c(=O)c3-c3cccc(F)c3)c3ncnc(N)c23)cc1F (single isomer, unassigned; (+)) [Example 7, (+)-2-(1-(4-amino-3-(3-fluoro-4-isopropoxyphenyl)-1H-pyrazolo[3,4-d]pyrimidin-1-yl)ethyl)-5-fluoro-3-(3-fluorophenyl)-4H-chromen-4-one]",C (C=>25 to 50%),50 to 75,≤ 50,≤ 50,–,–,–
"CC(C)Oc1ccc(-c2nn(C(C)c3oc4cccc(F)c4c(=O)c3-c3cccc(F)c3)c3ncnc(N)c23)cc1F (single isomer, unassigned; (-)) [Example 8, (−)-2-(1-(4-amino-3-(3-fluoro-4-isopropoxyphenyl)-1H-pyrazolo[3,4-d]pyrimidin-1-yl)ethyl)-5-fluoro-3-(3-fluorophenyl)-4H-chromen-4-one]",D (D=0 to 25%),–,≤ 50,≤ 50,–,–,IC50 (PI3kβ): 300 to 500 nM; % inhibition (PI3kβ) 1 uM (PI3kβ): B (B=>50 to 75%)
"Cc1cc(-c2nn(C(C)c3oc4cccc(F)c4c(=O)c3-c3cccc(F)c3)c3ncnc(N)c23)ccc1OC(C)C (single isomer, unassigned; (-)) [Example 115, (−) 2-(1-(4-amino-3-(4-isopropoxy-3-methylphenyl)-1H-pyrazolo[3,4-d]pyrimidin-1-yl)ethyl)-5-fluoro-3-(3-fluorophenyl)-4H-chromen-4-one]",C (C=>25 to 50%),–,–,–,–,–,% inhibition (PI3kβ) 1 uM (PI3kβ): D (D=0 to 25%); % inhibition (PI3kγ) 100 nM (PI3kγ): C (C=>25 to 50%); % inhibition (PI3kδ) 100 nM (PI3kδ; 0.1 µM): C (C=>25 to 50%)
"CC(C)Oc1ccc(-c2nn(Cc3oc4cccc(F)c4c(=O)c3-c3cccc(F)c3)c3ncnc(N)c23)cc1F [Example 3, 2-((4-amino-3-(3-fluoro-4-isopropoxyphenyl)-1H-pyrazolo[3,4-d]pyrimidin-1-yl)methyl)-5-fluoro-3-(3-fluorophenyl)-4H-chromen-4-one]",–,0 to 25,100 to 300,50 to 100,25 to 50,50 to 75,inhibition at 0.3 µM (PI3kδ): 50 to 75%
"CC(C)Oc1ccc(-c2nn(C(C)c3oc4cccc(F)c4c(=O)c3-c3cccc(F)c3)c3ncnc(N)c23)cc1F (centres unmarked) [Example 6, 2-(1-(4-amino-3-(3-fluoro-4-isopropoxyphenyl)-1H-pyrazolo[3,4-d]pyrimidin-1-yl)ethyl)-5-fluoro-3-(3-fluorophenyl)-4H-chromen-4-one]",–,25 to 50,50 to 100,≤ 50,0 to 25,75 to 100,IC50 (PI3kα; numeric values): > 10000 nM; inhibition at 0.3 µM (PI3kδ): 75 to 100%
"Cc1n[nH]c2cc(-c3nn(C(C)c4oc5cccc(F)c5c(=O)c4-c4cccc(F)c4)c4ncnc(N)c34)ccc12 (centres unmarked) [Example 9, 2-(1-(4-amino-3-(3-methyl-1H-indazol-6-yl)-1H-pyrazolo[3,4-d]pyrimidin-1-yl)ethyl)-5-fluoro-3-(3-fluorophenyl)-4H-chromen-4-one]",–,25 to 50,50 to 100,≤ 50,25 to 50,75 to 100,inhibition at 0.3 µM (PI3kδ): 75 to 100%
"Cc1n[nH]c2cc(-c3nn([C@@H](C)c4oc5cccc(F)c5c(=O)c4-c4cccc(F)c4)c4ncnc(N)c34)ccc12 [Example 9a, (+)-2-(1-(4-amino-3-(3-methyl-1H-indazol-6-yl)-1H-pyrazolo[3,4-d]pyrimidin-1-yl)ethyl)-5-fluoro-3-(3-fluorophenyl)-4H-chromen-4-one]",–,25 to 50,≤ 50,≤ 50,0 to 25,–,–
"Cc1n[nH]c2cc(-c3nn([C@H](C)c4oc5cccc(F)c5c(=O)c4-c4cccc(F)c4)c4ncnc(N)c34)ccc12 [Example 9b, (−)-2-(1-(4-amino-3-(3-methyl-1H-indazol-6-yl)-1H-pyrazolo[3,4-d]pyrimidin-1-yl)ethyl)-5-fluoro-3-(3-fluorophenyl)-4H-chromen-4-one]",–,25 to 50,300 to 500,300 to 500,0 to 25,–,–
"CC(c1oc2cccc(F)c2c(=O)c1-c1cccc(F)c1)n1nc(-c2cn[nH]c2)c2c(N)ncnc21 (centres unmarked) [Example 10, 2-(1-(4-amino-3-(1H-pyrazol-4-yl)-1H-pyrazolo[3,4-d]pyrimidin-1-yl)ethyl)-5-fluoro-3-(3-fluorophenyl)-4H-chromen-4-one]",–,0 to 25,100 to 300,–,25 to 50,75 to 100,inhibition at 0.3 µM (PI3kδ): 25 to 50%
"CC(c1oc2cccc(F)c2c(=O)c1-c1cccc(F)c1)n1nc(-c2ccc(N3CCOCC3)c(F)c2)c2c(N)ncnc21 (centres unmarked) [Example 25, 2-(1-(4-amino-3-(3-fluoro-4-morpholinophenyl)-1H-pyrazolo[3,4-d]pyrimidin-1-yl)ethyl)-5-fluoro-3-(3-fluorophenyl)-4H-chromen-4-one]",–,25 to 50,≤ 50,–,0 to 25,75 to 100,–
"Cc1nc2cc(-c3nn(C(C)c4oc5cccc(F)c5c(=O)c4-c4cccc(F)c4)c4ncnc(N)c34)ccc2[nH]1 (centres unmarked) [Example 26, 2-(1-(4-amino-3-(2-methyl-1H-benzo[d]imidazol-5-yl)-1H-pyrazolo[3,4-d]pyrimidin-1-yl)ethyl)-5-fluoro-3-(3-fluorophenyl)-4H-chromen-4-one]",–,25 to 50,50 to 100,–,0 to 25,75 to 100,–
